Where “and” joins values, the source holds several entries; their conditions need not be identical. Identical values can stand only once.
What was measured:
HIPK2 = HIPK2 (Homo sapiens, UniProt Q9H2X6); test: Radio labeled filter binding kinase assay, HIPK2; assay type: biochemical
TAOK1 = molecular target: T1, TAOK1 (Homo sapiens, UniProt Q7L7X3); test: Radio labeled filter binding kinase assay, TAOK1; assay type: biochemical; conditions: mean of duplicates
T1 sequence (Q7L7X3 1-1001): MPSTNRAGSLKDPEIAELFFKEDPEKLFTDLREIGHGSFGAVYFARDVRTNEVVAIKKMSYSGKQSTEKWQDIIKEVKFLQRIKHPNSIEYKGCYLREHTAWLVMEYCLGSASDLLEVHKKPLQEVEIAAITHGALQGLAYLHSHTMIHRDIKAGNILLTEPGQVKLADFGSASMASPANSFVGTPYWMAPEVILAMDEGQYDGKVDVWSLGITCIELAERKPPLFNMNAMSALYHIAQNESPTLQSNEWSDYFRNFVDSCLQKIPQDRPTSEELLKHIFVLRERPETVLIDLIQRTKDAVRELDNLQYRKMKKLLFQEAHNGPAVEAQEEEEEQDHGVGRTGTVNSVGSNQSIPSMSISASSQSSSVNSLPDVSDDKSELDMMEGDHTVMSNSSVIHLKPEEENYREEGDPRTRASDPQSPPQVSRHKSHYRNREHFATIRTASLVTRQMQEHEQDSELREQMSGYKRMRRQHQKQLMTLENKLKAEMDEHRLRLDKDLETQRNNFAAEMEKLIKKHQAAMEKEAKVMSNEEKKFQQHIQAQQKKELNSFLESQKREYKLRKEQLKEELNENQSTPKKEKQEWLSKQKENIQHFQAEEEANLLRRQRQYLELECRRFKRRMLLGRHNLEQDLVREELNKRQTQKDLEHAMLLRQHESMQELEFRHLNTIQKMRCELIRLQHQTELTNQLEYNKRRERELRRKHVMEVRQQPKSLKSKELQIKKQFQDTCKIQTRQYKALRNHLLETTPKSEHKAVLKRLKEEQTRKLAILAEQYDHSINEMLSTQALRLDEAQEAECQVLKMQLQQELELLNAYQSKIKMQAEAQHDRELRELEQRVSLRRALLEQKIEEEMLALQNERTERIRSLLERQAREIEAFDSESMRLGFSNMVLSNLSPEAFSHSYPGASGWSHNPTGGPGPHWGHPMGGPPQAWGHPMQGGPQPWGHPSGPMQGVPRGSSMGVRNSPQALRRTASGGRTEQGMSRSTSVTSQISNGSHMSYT

[1] = molecular target: cyclin-dependent kinase 9 (CDK9); design: method as in PMID 27746890; conditions: cited from earlier work
B-Raf (WT) = B-Raf (WT) (Homo sapiens, UniProt P15056); test: B-Raf Z'-LYTE cascade kinase assay (SelectScreen); assay type: biochemical; conditions: ATP 100 μM, points 1 and 2, listed as CCT363294-01
Chain of B-Raf (WT) (P15056 whole entry): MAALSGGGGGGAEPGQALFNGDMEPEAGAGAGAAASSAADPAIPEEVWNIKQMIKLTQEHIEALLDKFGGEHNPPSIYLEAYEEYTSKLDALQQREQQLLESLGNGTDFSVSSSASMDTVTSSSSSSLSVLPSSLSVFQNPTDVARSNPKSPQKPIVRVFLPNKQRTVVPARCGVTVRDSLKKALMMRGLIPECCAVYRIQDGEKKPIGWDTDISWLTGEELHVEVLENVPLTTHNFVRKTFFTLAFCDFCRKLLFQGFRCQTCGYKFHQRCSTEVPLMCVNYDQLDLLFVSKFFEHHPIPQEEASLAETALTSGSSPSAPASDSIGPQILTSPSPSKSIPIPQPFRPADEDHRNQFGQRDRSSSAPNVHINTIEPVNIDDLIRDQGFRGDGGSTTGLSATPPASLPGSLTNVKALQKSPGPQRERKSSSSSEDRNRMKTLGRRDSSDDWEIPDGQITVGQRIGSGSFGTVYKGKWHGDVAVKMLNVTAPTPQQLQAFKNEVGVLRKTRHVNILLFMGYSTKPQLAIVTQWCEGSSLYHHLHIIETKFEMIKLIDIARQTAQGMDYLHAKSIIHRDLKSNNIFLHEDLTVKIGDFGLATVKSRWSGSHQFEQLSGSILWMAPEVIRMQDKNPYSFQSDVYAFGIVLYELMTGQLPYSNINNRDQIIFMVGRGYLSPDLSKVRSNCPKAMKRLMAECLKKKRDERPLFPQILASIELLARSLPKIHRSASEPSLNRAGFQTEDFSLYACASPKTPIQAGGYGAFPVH

Chain of HIPK2 (Q9H2X6 whole entry): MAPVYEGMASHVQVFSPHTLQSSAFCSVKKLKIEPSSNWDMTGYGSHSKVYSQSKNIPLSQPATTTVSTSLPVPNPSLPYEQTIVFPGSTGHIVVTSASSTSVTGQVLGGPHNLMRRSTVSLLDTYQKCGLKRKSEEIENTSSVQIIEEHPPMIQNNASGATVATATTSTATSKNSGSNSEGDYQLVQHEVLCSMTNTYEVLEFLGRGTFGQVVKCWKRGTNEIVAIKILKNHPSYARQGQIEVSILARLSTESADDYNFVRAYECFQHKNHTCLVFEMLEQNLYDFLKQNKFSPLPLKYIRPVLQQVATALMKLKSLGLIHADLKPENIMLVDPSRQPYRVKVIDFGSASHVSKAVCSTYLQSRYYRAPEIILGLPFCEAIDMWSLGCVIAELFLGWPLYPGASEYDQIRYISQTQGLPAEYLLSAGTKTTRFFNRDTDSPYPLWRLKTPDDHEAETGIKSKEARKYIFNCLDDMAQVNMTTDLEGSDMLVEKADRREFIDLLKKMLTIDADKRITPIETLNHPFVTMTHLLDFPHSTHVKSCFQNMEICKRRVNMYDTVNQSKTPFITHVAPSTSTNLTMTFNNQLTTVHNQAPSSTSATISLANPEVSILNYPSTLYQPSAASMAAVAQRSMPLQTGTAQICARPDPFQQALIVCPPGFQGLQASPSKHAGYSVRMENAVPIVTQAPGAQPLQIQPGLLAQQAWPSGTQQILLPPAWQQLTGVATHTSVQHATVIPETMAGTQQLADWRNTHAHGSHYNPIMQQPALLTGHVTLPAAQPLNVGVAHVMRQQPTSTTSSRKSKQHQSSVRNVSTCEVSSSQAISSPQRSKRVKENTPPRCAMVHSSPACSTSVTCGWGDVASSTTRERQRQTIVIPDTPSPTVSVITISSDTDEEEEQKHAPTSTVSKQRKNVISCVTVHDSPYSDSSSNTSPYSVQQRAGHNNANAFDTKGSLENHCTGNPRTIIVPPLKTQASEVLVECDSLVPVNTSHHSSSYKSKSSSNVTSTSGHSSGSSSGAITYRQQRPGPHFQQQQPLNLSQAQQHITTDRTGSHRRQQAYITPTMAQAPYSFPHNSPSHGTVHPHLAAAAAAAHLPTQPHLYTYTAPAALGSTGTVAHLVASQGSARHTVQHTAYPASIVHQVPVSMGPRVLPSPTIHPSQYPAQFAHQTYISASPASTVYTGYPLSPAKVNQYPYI

## c1cnc2ncn(-c3cc(Nc4ccc(OCCN5CCCCC5)cn4)ncn3)c2c1 [Compd 1]
HIPK2; 0.0003 µM compound, duplicates
  activity at 0.0003 µM: 99%
HIPK2; 0.0003 µM compound, duplicates, listed as CCT250006, 0.0003 µM
  HIPK2 % activity: 95%
HIPK2; 0.001 µM compound, duplicates
  activity at 0.001 µM: 94%
HIPK2; 0.001 µM compound, duplicates, listed as CCT250006, 0.001 µM
  HIPK2 % activity: 107%
HIPK2; 0.003 µM compound, duplicates, listed as CCT250006, 0.003 µM
  HIPK2 % activity: 95% and 121%
HIPK2; 0.01 µM compound, duplicates
  activity at 0.01 µM: 86%
HIPK2; 0.01 µM compound, duplicates, listed as CCT250006, 0.01 µM
  HIPK2 % activity: 88%
HIPK2; 0.03 µM compound, duplicates
  activity at 0.03 µM: 43%
HIPK2; 0.03 µM compound, duplicates, listed as CCT250006, 0.03 µM
  HIPK2 % activity: 39%
HIPK2; 0.1 µM compound, duplicates
  activity at 0.1 µM: 26%
HIPK2; 0.1 µM compound, duplicates, listed as CCT250006, 0.1 µM
  HIPK2 % activity: 35%
HIPK2; 0.3 µM compound, duplicates
  activity at 0.3 µM: 9%
HIPK2; 0.3 µM compound, duplicates, listed as CCT250006, 0.3 µM
  HIPK2 % activity: 11%
HIPK2; 1 µM compound, duplicates
  activity at 1 µM: 6%
HIPK2; 1 µM compound, duplicates, listed as CCT250006, 1 µM
  HIPK2 % activity: 5%
HIPK2; 3 µM compound, duplicates, listed as CCT250006, 3 µM
  HIPK2 % activity: 1% and 4%
HIPK2; 10 µM compound, duplicates, listed as CCT250006, 10 µM
  HIPK2 % activity: 1% and 5%
HIPK2; SI Table S5, unit inferred, one per duplicate curve, read-out: HIPK2 IC50, fitted values above the IC50(µM) line
  IC50: 0.0272 µM
TAOK1; 0.0003 µM compound
  activity at 0.0003 µM: 108%
TAOK1; 0.001 µM compound
  activity at 0.001 µM: 95%
TAOK1; 0.003 µM compound
  activity at 0.003 µM: 111%
TAOK1; 0.01 µM compound
  activity at 0.01 µM: 116%
TAOK1; 0.03 µM compound
  activity at 0.03 µM: 109%
TAOK1; 0.1 µM compound
  activity at 0.1 µM: 82%
TAOK1; 0.3 µM compound
  activity at 0.3 µM: 69%
TAOK1; 1 µM compound
  activity at 1 µM: 46%
TAOK1; 3 µM compound
  activity at 3 µM: 20%
TAOK1; 10 µM compound
  activity at 10 µM: 11%
[1]
  IC50: ≤ 0.003 µM

## CC(C)(C)N1CCN(Cc2ccc3cc(C(=O)Nc4cc(NC(=O)c5ccc6c(c5)OCCO6)ccc4Cl)ccc3n2)CC1 [Compd 8, 2-((4-(tert-butyl)piperazin-1-yl)methyl)-N-(2-chloro-5-(2,3-dihydrobenzo[b][1,4]dioxine-6-carboxamido)phenyl)quinoline-6-carboxamide]
B-Raf (WT); 1.52 nM compound
  % Inhibition BRAF: -10% and -14%
B-Raf (WT); 13.7 nM compound
  % Inhibition BRAF: -17% and -16%
B-Raf (WT); 41.2 nM compound
  % Inhibition BRAF: -36% and -33%
B-Raf (WT); 123 nM compound
  % Inhibition BRAF: -22% and -28%
B-Raf (WT); 1110 nM compound
  % Inhibition BRAF: -4% and -8%
B-Raf (WT); 3330 nM compound
  % Inhibition BRAF: 6% and -3%

— PMC6295861, “Privileged Structures and Polypharmacology within and between Protein Families” (ACS Medicinal Chemistry Letters, 2018)
